Laboratory results as given in PubChem BioAssay (NCI).
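Interpolation was linear, between the two tested concentrations surrounding the appropriate level; five concentrations were tested over 48 hours in 96-well plates. TGI: total growth inhibition.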

Legend:
Assay in all cases: NCI-60 cell line screen, 48 h
786-0 renal = test system: 786-0 renal
A549 NSCLC = test system: A549 NSCLC
ACHN renal = test system: ACHN renal
CAKI-1 renal = test system: CAKI-1 renal
CCRF-CEM leukemia = test system: CCRF-CEM leukemia
COLO 205 colon = test system: COLO 205 colon
DLD-1 colon = test system: DLD-1 colon
DMS 114 small cell lung = test system: DMS 114 small cell lung
DMS 273 small cell lung = test system: DMS 273 small cell lung
EKVX NSCLC = test system: EKVX NSCLC
HCC-2998 colon = test system: HCC-2998 colon
HCT-116 colon = test system: HCT-116 colon
HCT-15 colon = test system: HCT-15 colon
HL-60(TB) leukemia = test system: HL-60(TB) leukemia
HOP-62 NSCLC = test system: HOP-62 NSCLC
HT29 colon = test system: HT29 colon
K-562 leukemia = test system: K-562 leukemia
KM12 colon = test system: KM12 colon
LOX IMVI melanoma = test system: LOX IMVI melanoma
M14 melanoma = test system: M14 melanoma
M19-MEL melanoma = test system: M19-MEL melanoma
MALME-3M melanoma = test system: MALME-3M melanoma
MOLT-4 leukemia = test system: MOLT-4 leukemia
NCI-H226 lung = test system: NCI-H226 lung
NCI-H23 lung = test system: NCI-H23 lung
NCI-H460 lung = test system: NCI-H460 lung
NCI-H522 lung = test system: NCI-H522 lung
OVCAR-3 ovarian = test system: OVCAR-3 ovarian
OVCAR-4 ovarian = test system: OVCAR-4 ovarian
OVCAR-5 ovarian = test system: OVCAR-5 ovarian
OVCAR-8 ovarian = test system: OVCAR-8 ovarian
RPMI-8226 leukemia = test system: RPMI-8226 leukemia
SF-268 CNS = test system: SF-268 CNS
SF-539 CNS = test system: SF-539 CNS
SK-MEL-2 melanoma = test system: SK-MEL-2 melanoma
SK-MEL-28 melanoma = test system: SK-MEL-28 melanoma
SK-MEL-5 melanoma = test system: SK-MEL-5 melanoma
SN12C renal = test system: SN12C renal
SNB-19 CNS = test system: SNB-19 CNS
SNB-75 CNS = test system: SNB-75 CNS
SNB-78 CNS = test system: SNB-78 CNS
SR leukemia = test system: SR leukemia
SW-620 colon = test system: SW-620 colon
TK-10 renal = test system: TK-10 renal
U251 CNS = test system: U251 CNS
UACC-257 melanoma = test system: UACC-257 melanoma
UO-31 renal = test system: UO-31 renal
A498 renal = test system: A498 renal
HOP-18 NSCLC = test system: HOP-18 NSCLC
HOP-92 NSCLC = test system: HOP-92 NSCLC
IGROV1 ovarian = test system: IGROV1 ovarian
LXFL 529 NSCLC = test system: LXFL 529 NSCLC
SF-295 CNS = test system: SF-295 CNS
SK-OV-3 ovarian = test system: SK-OV-3 ovarian
UACC-62 melanoma = test system: UACC-62 melanoma

Nc1ccc2nc(Nc3ccc(Cl)c(Cl)c3)cnc2c1
TGI (786-0 renal): 33.1 µM | TGI (A549 NSCLC): 41.9 µM | TGI (ACHN renal): 91.9 µM | TGI (CAKI-1 renal): > 100 µM | TGI (CCRF-CEM leukemia): 9.57 µM | TGI (COLO 205 colon): 34.9 µM | TGI (DLD-1 colon): > 100 µM | TGI (DMS 114 small cell lung): 24.5 µM | TGI (DMS 273 small cell lung): 34.1 µM | TGI (EKVX NSCLC): > 100 µM | TGI (HCC-2998 colon): 29.8 µM | TGI (HCT-116 colon): 33.4 µM | TGI (HCT-15 colon): 46.5 µM | TGI (HL-60(TB) leukemia): 31.6 µM | TGI (HOP-62 NSCLC): 36.2 µM | TGI (HT29 colon): 36.9 µM | TGI (K-562 leukemia): 82.5 µM | TGI (KM12 colon): 32.3 µM | TGI (LOX IMVI melanoma): 28 µM | TGI (M14 melanoma): 27.4 µM | TGI (M19-MEL melanoma): 39.2 µM | TGI (MALME-3M melanoma): 35.3 µM | TGI (MOLT-4 leukemia): 97.7 µM | TGI (NCI-H226 lung): 41.8 µM | TGI (NCI-H23 lung): 66.5 µM | TGI (NCI-H460 lung): 45.3 µM | TGI (NCI-H522 lung): 21.6 µM | TGI (OVCAR-3 ovarian): 36.7 µM | TGI (OVCAR-4 ovarian): 60.4 µM | TGI (OVCAR-5 ovarian): 46.8 µM | TGI (OVCAR-8 ovarian): > 100 µM | TGI (RPMI-8226 leukemia): 54.4 µM | TGI (SF-268 CNS): 37.8 µM | TGI (SF-539 CNS): 64.5 µM | TGI (SK-MEL-2 melanoma): 37.7 µM | TGI (SK-MEL-28 melanoma): 36.8 µM | TGI (SK-MEL-5 melanoma): > 100 µM | TGI (SN12C renal): 33 µM | TGI (SNB-19 CNS): 38.7 µM | TGI (SNB-75 CNS): > 100 µM | TGI (SNB-78 CNS): > 100 µM | TGI (SR leukemia): 35.5 µM | TGI (SW-620 colon): 33.7 µM | TGI (TK-10 renal): 60.6 µM | TGI (U251 CNS): 44.2 µM | TGI (UACC-257 melanoma): 71 µM | TGI (UO-31 renal): 29.4 µM

CCCN(CCC)CCc1cc(C(C)=O)n(S(=O)(=O)c2ccc(C)cc2)c1
TGI (786-0 renal): > 100 µM | TGI (A498 renal): > 100 µM | TGI (A549 NSCLC): > 100 µM | TGI (ACHN renal): > 100 µM | TGI (CAKI-1 renal): > 100 µM | TGI (CCRF-CEM leukemia): > 100 µM | TGI (COLO 205 colon): > 100 µM | TGI (DLD-1 colon): > 100 µM | TGI (DMS 114 small cell lung): > 100 µM | TGI (DMS 273 small cell lung): > 100 µM | TGI (EKVX NSCLC): > 100 µM | TGI (HCC-2998 colon): > 100 µM | TGI (HCT-116 colon): > 100 µM | TGI (HCT-15 colon): > 100 µM | TGI (HOP-18 NSCLC): > 100 µM | TGI (HOP-62 NSCLC): > 100 µM | TGI (HOP-92 NSCLC): > 100 µM | TGI (HT29 colon): > 100 µM | TGI (IGROV1 ovarian): > 100 µM | TGI (K-562 leukemia): > 100 µM | TGI (KM12 colon): > 100 µM | TGI (LXFL 529 NSCLC): > 100 µM | TGI (M14 melanoma): 40.2 µM | TGI (M19-MEL melanoma): > 100 µM | TGI (MALME-3M melanoma): > 100 µM | TGI (MOLT-4 leukemia): > 100 µM | TGI (NCI-H226 lung): > 100 µM | TGI (NCI-H23 lung): > 100 µM | TGI (NCI-H460 lung): > 100 µM | TGI (NCI-H522 lung): > 100 µM | TGI (OVCAR-3 ovarian): > 100 µM | TGI (OVCAR-4 ovarian): > 100 µM | TGI (OVCAR-5 ovarian): > 100 µM | TGI (OVCAR-8 ovarian): > 100 µM | TGI (RPMI-8226 leukemia): > 100 µM | TGI (SF-268 CNS): > 100 µM | TGI (SF-295 CNS): > 100 µM | TGI (SF-539 CNS): > 100 µM | TGI (SK-MEL-2 melanoma): > 100 µM | TGI (SK-MEL-28 melanoma): > 100 µM | TGI (SK-MEL-5 melanoma): > 100 µM | TGI (SK-OV-3 ovarian): > 100 µM | TGI (SN12C renal): > 100 µM | TGI (SNB-19 CNS): > 100 µM | TGI (SNB-75 CNS): > 100 µM | TGI (SNB-78 CNS): > 100 µM | TGI (SR leukemia): > 100 µM | TGI (SW-620 colon): > 100 µM | TGI (TK-10 renal): > 100 µM | TGI (U251 CNS): > 100 µM | TGI (UACC-257 melanoma): > 100 µM | TGI (UACC-62 melanoma): > 100 µM | TGI (UO-31 renal): > 100 µM
